According to patent US20110178118A1, “PALONOSETRON FOR THE TREATMENT OF CHEMOTHERAPY INDUCED EMESES” (priority 2002, published 2011):

Assay: Systemic exposure of palonosetron (plasma, HPLC-radioimmunoassay)
Assay type: in vivo, dogs
Details: 100 to 1000 μg/kg

Cl.O=C1c2cccc3c2[C@H](CCC3)CN1[C@@H]1CN2CCC1CC2 [Palonosetron, (3aS)-2,3,3a,4,5,6-Hexahydro-2-[(S)-1-Azabicyclo[2.2.2]oct-3-yl]2,3,3a,4,5,6-hexahydro-1-oxo-1Hbenz[de]isoquinoline hydrochloride]
dose proportionality of systemic exposure (AUC0-4hr): approximately dose-proportional
